This is an account of results in article PMC8198714, “New Coumarin Derivatives as Cholinergic and Cannabinoid System Modulators” (Molecules, 2021).

Test [1] has as its target T1, FAAH in rat brain membranes (Rattus norvegicus, UniProt P97612).
T1 sequence (P97612 1-579): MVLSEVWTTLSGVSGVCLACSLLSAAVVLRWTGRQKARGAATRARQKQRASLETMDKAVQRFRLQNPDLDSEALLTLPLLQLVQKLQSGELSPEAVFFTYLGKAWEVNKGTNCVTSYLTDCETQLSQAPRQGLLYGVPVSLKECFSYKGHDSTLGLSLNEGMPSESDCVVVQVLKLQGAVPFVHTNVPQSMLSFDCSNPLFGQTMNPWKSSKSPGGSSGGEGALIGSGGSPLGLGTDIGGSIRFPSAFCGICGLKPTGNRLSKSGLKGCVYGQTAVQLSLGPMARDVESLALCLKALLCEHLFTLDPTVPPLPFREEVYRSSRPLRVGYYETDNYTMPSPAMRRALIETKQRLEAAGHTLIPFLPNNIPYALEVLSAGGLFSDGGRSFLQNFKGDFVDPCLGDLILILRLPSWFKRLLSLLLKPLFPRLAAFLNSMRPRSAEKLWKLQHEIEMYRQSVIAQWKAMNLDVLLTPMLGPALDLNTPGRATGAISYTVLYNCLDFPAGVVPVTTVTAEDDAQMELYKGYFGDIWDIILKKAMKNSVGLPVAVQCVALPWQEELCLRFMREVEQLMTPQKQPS
To be noted: read-out: IC50 FAAH with 20 min Pre-incubation; cited from earlier work.

Test [2] has as its target T2, human recombinant AChE (hAChE) (Homo sapiens, UniProt P22303).
T2 construct: purchased Sigma-Aldrich, Merck group, Milan, Italy
As to the kind of experiment: Inhibition of human AChE, Ellman's method. It counts as biochemical. To be noted: for IC50: human recombinant AChE; for inhibition at 40 µM: [I] = 40 µM, read-out: hAChE % Inhibition (±SEM). The method, then:
(§1) The capacity of 2–7 to inhibit human ChE activity was assessed using the Ellman’s method. Initial rate assays were performed at 37 °C with a V-530 double beam spectrophotometer (Jasco Corporation, Cremella (LC), Italy city, state/prov abbrev if USA/Canada, country). […] AChE stock solution was prepared by dissolving human recombinant AChE lyophilized powder (Sigma-Aldrich, Merck group, Milan, Italy) in 0.1 M phosphate buffer at pH 8.0 containing 0.1% Triton X-100. Stock solution of BuChE was prepared by diluting commercial stock solution of BuChE from human serum (Sigma) in an aqueous solution of gelatin (0.2%) in order to have a final activity comprised between 0.11–0.15 ΔAbs/min. Stock solutions of inhibitors (1–2 mM) were prepared in methanol and diluted in methanol. […] Incubation times were: 60 min for 2 and 90 min for 3 and 4 on hAChE assay, and 45 min for 2 and 60 min for 3 and 4 on hBuChE assay, as assessed on the preliminary determination of the carbamoylation rate. Blank solutions containing all components except the enzyme were prepared in order to account for the non-enzymatic hydrolysis of the substrate. The reaction rates obtained in the absence and presence of inhibitor were compared and the percent inhibition due to the presence of inhibitor was calculated. […] Two independent experiments were performed for the determination of each IC50 value or for the calculation of the % of inhibition where the IC50 value could not be determined because of low inhibitory activity.
For orientation: Ellman's reagent forms a yellow product with free thiols.

The target in test [3] is T3, BuChE from human serum (hBuChE) (Homo sapiens, UniProt P06276).
T3 construct: commercial stock solution of BuChE from human serum (Sigma); purchased Sigma; host or cells: human serum
T3 sequence (P06276 29-602): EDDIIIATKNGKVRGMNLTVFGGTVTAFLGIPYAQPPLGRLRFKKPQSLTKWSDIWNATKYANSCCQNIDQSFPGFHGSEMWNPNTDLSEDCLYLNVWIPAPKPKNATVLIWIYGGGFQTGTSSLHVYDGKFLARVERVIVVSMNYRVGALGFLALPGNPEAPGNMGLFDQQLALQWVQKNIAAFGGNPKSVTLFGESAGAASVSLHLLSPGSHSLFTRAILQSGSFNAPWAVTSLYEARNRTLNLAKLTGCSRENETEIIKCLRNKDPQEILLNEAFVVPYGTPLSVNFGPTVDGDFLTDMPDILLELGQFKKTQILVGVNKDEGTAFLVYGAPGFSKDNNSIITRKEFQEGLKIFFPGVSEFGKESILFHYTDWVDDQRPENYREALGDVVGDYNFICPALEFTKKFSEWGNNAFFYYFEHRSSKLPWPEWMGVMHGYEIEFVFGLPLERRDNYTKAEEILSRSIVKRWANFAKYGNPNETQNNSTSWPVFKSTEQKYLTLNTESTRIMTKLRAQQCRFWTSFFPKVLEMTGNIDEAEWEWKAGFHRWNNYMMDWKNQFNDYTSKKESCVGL
As to the kind of experiment: Inhibition of human BuChE, Ellman's method. It counts as biochemical. To be noted: for IC50: BuChE from human serum. The method, then:
as §1

A further test deals with T4, hAChE (Homo sapiens, UniProt P22303).
T4 construct: purchased Sigma-Aldrich, Merck group, Milan, Italy
T4 sequence (P22303 32-614): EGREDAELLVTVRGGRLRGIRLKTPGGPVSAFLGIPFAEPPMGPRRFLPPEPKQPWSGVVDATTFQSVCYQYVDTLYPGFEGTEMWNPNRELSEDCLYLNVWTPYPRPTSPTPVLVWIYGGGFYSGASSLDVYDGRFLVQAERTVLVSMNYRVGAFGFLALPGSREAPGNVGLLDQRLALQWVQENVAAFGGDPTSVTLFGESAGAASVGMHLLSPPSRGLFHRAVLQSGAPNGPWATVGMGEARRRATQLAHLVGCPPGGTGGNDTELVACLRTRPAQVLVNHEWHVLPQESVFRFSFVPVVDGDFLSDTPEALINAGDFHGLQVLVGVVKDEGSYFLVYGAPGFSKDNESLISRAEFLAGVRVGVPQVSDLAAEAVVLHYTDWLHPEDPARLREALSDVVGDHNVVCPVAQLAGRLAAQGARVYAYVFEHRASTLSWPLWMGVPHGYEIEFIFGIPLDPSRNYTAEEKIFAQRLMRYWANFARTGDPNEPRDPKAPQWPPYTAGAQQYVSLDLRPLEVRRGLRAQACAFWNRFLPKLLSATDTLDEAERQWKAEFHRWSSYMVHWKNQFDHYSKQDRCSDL
Kind of test: Stopped time assay of hAChE carbamoylation. The following applies: determined at IC50 value. The class given is biochemical.

Another test addresses T5, Aβ42 self-aggregation (Homo sapiens, UniProt P05067).
T5 construct: pretreated Aβ42 samples (Bachem AG, Bubendorf, Switzerland); purchased Bachem AG, Bubendorf, Switzerland
Kind of test: Inhibition of Aβ42 self-aggregation, thioflavin T fluorescence. The class given is biochemical. The following applies: read-out: % Inhibition Aβ42 self-aggregation (±SEM). As to the method:
Finally, in a multitarget perspective, the compounds were tested to evaluate their Aβ anti-aggregation properties.
As reported in a previously published protocol, 1,1,1,3,3,3-hexafluoro, 2-propanol pretreated Aβ42 samples (Bachem AG, Bubendorf, Switzerland) were solubilized with a CH3CN/0.3 mM Na2CO3/250 mM NaOH (48.4:48.4:3.2) mixture. Experiments were performed by incubating the peptide in 10 mM phosphate buffer (pH = 8.0) containing 10 mM NaCl, at 30 °C for 24 h (final Aβ concentration = 50 μM) with and without inhibitor (50 μM, Aβ/inhibitor = 1/1). Blanks containing the tested inhibitors were also prepared and tested. To quantify amyloid fibrils formation, the thioflavin T (ThT) fluorescence method was used. After incubation, samples were diluted to a final volume of 2.0 mL with 50 mM glycine-NaOH buffer (pH 8.5) containing 1.5 μM ThT. A 300 s-time scan of fluorescence intensity was carried out (λexc = 446 nm; λem = 490 nm, FP-6200 fluorometer, Jasco Europe), and values at plateau were averaged after subtracting the background fluorescence of 1.5 μM ThT solution. The fluorescence intensities were compared and the percent inhibition due to the presence of the inhibitor.

For test [4], the target named is T1, FAAH in rat brain membranes. As to the kind of experiment: FAAH assay, [14C]-AEA hydrolysis in rat brain membranes.
Test [5] deals with T6, human recombinant CB2 receptor (Homo sapiens, UniProt P34972).
T6 construct: purchased Perkin Elmer, Milan, Italy; host or cells: HEK-293
T6 sequence (P34972 whole entry): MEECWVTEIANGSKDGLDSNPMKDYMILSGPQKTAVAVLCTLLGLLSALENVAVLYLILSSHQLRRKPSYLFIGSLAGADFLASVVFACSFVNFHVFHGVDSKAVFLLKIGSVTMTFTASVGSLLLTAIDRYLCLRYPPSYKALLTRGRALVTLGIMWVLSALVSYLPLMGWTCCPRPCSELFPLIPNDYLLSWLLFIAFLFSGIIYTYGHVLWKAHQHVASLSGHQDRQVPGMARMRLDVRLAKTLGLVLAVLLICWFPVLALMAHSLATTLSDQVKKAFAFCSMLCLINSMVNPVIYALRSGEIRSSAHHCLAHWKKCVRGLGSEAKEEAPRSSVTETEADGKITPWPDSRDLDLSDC
Kind of test: Competition binding assay with [3H]-CP-55,940 at CB2. To be noted: for Ki: [3H]-CP55940 displacement, HEK-293 membranes, read-out: Ki on CB2 (m ± sd); for % Displacement at max tested on CB2 (m ± sd): max tested concentration 10 µM, [3H]-CP55940. As to the method:
(§2) Competition binding assay for CB1 and CB2 receptors was performed as previously reported. […] All compounds were tested following the procedure described by the manufacturer (Perkin Elmer, Milan, Italy).

The target of test [6] is T7, human recombinant CB1 receptor (Homo sapiens, UniProt P21554).
T7 construct: purchased Perkin Elmer, Milan, Italy; host or cells: HEK-293
T7 sequence (P21554 whole entry): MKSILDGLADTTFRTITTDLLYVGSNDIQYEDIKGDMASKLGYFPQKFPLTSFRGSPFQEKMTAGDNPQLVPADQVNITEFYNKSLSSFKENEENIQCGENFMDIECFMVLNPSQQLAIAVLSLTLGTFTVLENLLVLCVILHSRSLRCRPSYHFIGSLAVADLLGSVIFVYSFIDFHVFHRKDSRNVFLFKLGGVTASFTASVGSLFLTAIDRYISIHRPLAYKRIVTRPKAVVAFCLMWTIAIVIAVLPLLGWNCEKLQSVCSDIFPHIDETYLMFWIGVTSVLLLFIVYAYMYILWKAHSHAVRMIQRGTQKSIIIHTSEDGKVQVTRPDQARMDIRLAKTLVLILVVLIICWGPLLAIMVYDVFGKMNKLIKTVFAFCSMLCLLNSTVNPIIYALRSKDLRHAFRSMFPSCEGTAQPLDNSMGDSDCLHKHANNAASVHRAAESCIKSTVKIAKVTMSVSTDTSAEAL
Kind of test: Competition binding assay with [3H]-CP-55,940 at CB1. To be noted: for Ki: [3H]-CP55940 displacement, HEK-293 membranes, read-out: Ki on CB1 (m ± sd); for % Displacement at max tested on CB1 (m ± sd): max tested concentration 10 µM, [3H]-CP55940. As to the method: as §2

The mark [7] stands for this setting: IC50 FAAH (m ± sd), rat brain membranes, AEA hydrolysis, without pre-incubation.
Where [8] appears, read: IC50 FAAH with 20 min Pre-incubation, rat brain membranes, 20 min pre-incubation at 37 °C.
Setting [9] is: incubation time 60 min, read-out: IC50 hBuChE (±SEM).
The mark [10] stands for this setting: incubation 20 min, read-out: hBuChE IC50 (±SEM).

Like-named read-outs stand apart in the source and are kept apart here.

For orientation: IC50 means the point on the concentration scale where inhibition reaches its midpoint. One may read the inhibition as how much of the control response was suppressed. The term Ki denotes the dissociation constant of the complex between target and ligand, obtained from inhibition or displacement.

T5 sequence (P05067 672-713 limits assumed): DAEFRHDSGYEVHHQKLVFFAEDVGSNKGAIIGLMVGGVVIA
T2 sequence (P22303 32-614): as the sequence (P22303 32-614) above

With `CCCCCCCNC(=O)Oc1cccc(CN(C)CCCOc2ccc3ccc(=O)oc3c2)c1` [Compound 1], the half-inhibitory concentration (IC50) in test [1] was 0.029 ± 0.001 µM.

For `CN(CCCOc1ccc2ccc(=O)oc2c1)Cc1cccc(OC(=O)NC2CCCC2)c1` [Compound 2, 3-((Methyl(3-((2-oxo-2H-chromen-7-yl)oxy)propyl)amino)methyl)phenyl cyclopentylcarbamate], the IC50 was 0.521 ± 0.014 µM in test [2] (incubation time 60 min, read-out: IC50 hAChE (±SEM)); 0.00842 ± 0.00013 µM in test [3] (incubation time 45 min, read-out: IC50 hBuChE (±SEM)); 6.09 ± 1.55 µM in test [4] (setting [7]); 2.53 ± 0.55 µM in test [4] (setting [8]). For the same compound, the “pseudo-first order kobs of hAChE carbamoylation” value on hAChE amounted to 0.038 min⁻¹. For the same compound, the inhibition at 50 µM at Aβ42 self-aggregation was 22.9 ± 1.3%.

On to `CN(CCCOc1ccc2ccc(=O)oc2c1)Cc1cccc(OC(=O)NC2CCCCC2)c1` [Compound 3, 3-((Methyl(3-((2-oxo-2H-chromen-7-yl)oxy)propyl)amino)methyl)phenyl cyclohexylcarbamate], for which the IC50 amounted to 0.104 ± 0.021 µM in test [2] (incubation time 90 min, read-out: IC50 hAChE (±SEM)); 0.0349 ± 0.0042 µM in test [3] (setting [9]); 2.55 ± 0.33 µM in test [4] (setting [7]); 1.33 ± 0.28 µM in test [4] (setting [8]). In addition, the inhibition at 50 µM at Aβ42 self-aggregation was determined as 18.9 ± 2.1%.

Take `CN(CCCOc1ccc2ccc(=O)oc2c1)Cc1cccc(OC(=O)Nc2ccc3ccccc3c2)c1` [Compound 4, 3-((Methyl(3-((2-oxo-2H-chromen-7-yl)oxy)propyl)amino)methyl)phenyl naphthalen-2-ylcarbamate]: the IC50 in test [3] (setting [9]) is 0.002 ± 0.0002 µM; in test [4] (setting [7]), 1.58 ± 0.26 µM; in test [4] (setting [8]), 0.63 ± 0.08 µM. For the same compound, in test [3] (hBuChE over hAChE), the “difference in IC50 values hAChE vs hBuChE (selectivity)” value was found to be 100 fold. For the same compound, the inhibition at 50 µM on Aβ42 self-aggregation was determined as 13.9 ± 3.8%.

Take `CCCCCCCNC(=O)COc1cccc(CN(C)CCCOc2ccc3ccc(=O)oc3c2)c1` [Compound 5, N-Heptyl-2-(3-((methyl(3-((2-oxo-2H-chromen-7-yl)oxy)propyl)amino)methyl)phenoxy)acetamide]: the inhibition at 40 µM in test [2] (incubation 20 min) was 13.6 ± 5.1%. The figures for the IC50 in test [3] (setting [10]) and in test [4] were 182 ± 28 µM and more than 1000 µM, respectively. Besides, the Ki in test [5] and in test [6] was more than 10 µM in each case. For the same compound, the “% Displacement at max tested on CB2 (m ± sd)” value in test [5] was 10 (41.41 ± 0.87) %. In addition, the “% Displacement at max tested on CB1 (m ± sd)” value in test [6] was 10 (35.57 ± 0.43) %.

With `CN(CCCOc1ccc2ccc(=O)oc2c1)Cc1cccc(OCC(=O)NC2CCCC2)c1` [Compound 6, N-Cyclopentyl-2-(3-((methyl(3-((2-oxo-2H-chromen-7yl)oxy)propyl)amino)methyl)phenoxy)-acetamide], in test [2] (incubation 20 min), the inhibition at 40 µM turned out to be 41.7 ± 0.5%. The IC50 is 59.4 µM in test [2] (incubation 20 min, read-out: IC50 hAChE); 11.6 ± 0.8 µM in test [3] (setting [10]); more than 1000 µM in test [4]. The Ki in test [5] and in test [6] was more than 10 µM throughout. Besides, in test [5], the “% Displacement at max tested on CB2 (m ± sd)” value is listed as 10 (48.33 ± 1.73) %. Besides, the inhibition at 50 µM on Aβ42 self-aggregation was found to be 20.3 ± 1.9%. In test [6], the “% Displacement at max tested on CB1 (m ± sd)” value was 10 (35.75 ± 0.65) %.

Consider `CN(CCCOc1ccc2ccc(=O)oc2c1)Cc1cccc(OCC(=O)NC2CCCCC2)c1` [Compound 7, N-Cyclohexyl-2-(3-((methyl(3-((2-oxo-2H-chromen-7-yl)oxy)propyl)amino)methyl)phenoxy)-acetamide], for which the inhibition at 40 µM in test [2] (incubation 20 min) was 34 ± 3.2%. In addition, the IC50 in test [3] (setting [10]) is 12.8 ± 2.1 µM; in test [4] it was more than 1000 µM. The inhibition constant (Ki) in test [5] and in test [6] was more than 10 µM throughout. Also, the “% Displacement at max tested on CB2 (m ± sd)” value in test [5] is recorded as 10 (14.3 ±3.83) %. In addition, the inhibition at 50 µM at Aβ42 self-aggregation was found to be 13.5 ± 5%. Also, in test [6], the “% Displacement at max tested on CB1 (m ± sd)” value was 10 (39.62 ± 10.48) %.
